In patent US20210060016A1, “ANTICANCER AGENT” (JAPANESE FOUNDATION FOR CANCER RESEARCH, priority 2017, published 2021):

Columns and labels:
[1] = tested on: human colorectal cancer cell line COLO-320DM; assay: MTT assay, combination of test compound and other anticancer agents; type: cell-based
Method: The ratio of residual cells in treatment of the human colorectal cancer cell line COLO-320DM with a combination of the compound prepared in each Compound Example (test compound or tankyrase inhibitory compound) and each of the anticancer agents was measured to evaluate the cell killing effect of the combination on the human colorectal cancer cell line COLO-320DM. The combinations of test compounds and anticancer agents are as follows.
(Example 8): combination of the compound prepared in Compound Example 5 and temozolomide, melphalan, gemcitabine, cytarabine (Ara-C), fluorouracil (5-FU), pemetrexed, mercaptopurine, methotrexate, irinotecan (SN-38), etoposide (VP-16), actinomycin D, daunorubicin, doxorubicin, bleomycin, mitoxantrone, oxaliplatin, carboplatin or cisplatin (Example 9): combination of the compound prepared in Compound Example 110 (G007-LK) and irinotecan (SN-38) (Example 10): combination of the compound prepared in Compound Example 11 and irinotecan (SN-38) (Example 11): combination of the compound prepared in Compound Example 19 and irinotecan (SN-38) (Example 12): combination of the compound prepared in Compound Example 101 and irinotecan (SN-38) (Example 13): combination of the compound prepared in Compound Example 1 and irinotecan (SN-38) (Example 14): combination of the compound prepared in Compound Example 113 and irinotecan (SN-38)
Commercially available compounds were used for temozolomide (manufactured by Sigma-Aldric), melphalan (manufactured by Signa-Aldrich), gemcitabine (Gemcitabine hydrochloride; manufactured by Sigma-Aldric), cytarabine (Cytosine β-D-arabinofuranoside (Ara-C); manufactured by Sigma-Aldrich), fluorouracil (5-Fluorouracil (5-FU); manufactured by Sigma-Aldrich), pemetrexed (Pemetrexed disodium heptahydrate; manufactured by Sigma-Aldrich), mercaptopurine (6-Mercaptopurine monohydrate; manufactured by Sigma-Aldrich), methotrexate (Methotrexate hydrate; manufactured by Sigma-Aldrich), irinotecan (7-Ethyl-10-hydroxycamptothecin (SN-38); manufactured by Sigma-Aldrich), etoposide (Etoposide (VP-16); manufactured by Enzo Life Sciences, Inc.), actinomycin D (manufactured by nacalai tesque), daunorubicin (Daunorubicin hydrochloride; Calbiochem), doxorubicin (Doxorubicin hydrochloride; manufactured by Sigma-Aldrich), bleomycin (Bleomycin sulfate; manufactured by Enzo Life Sciences, Inc.), mitoxantrone (Mitoxantrone dihydrochloride; manufactured by Sigma-Aldrich), oxaliplatin (manufactured by Sigma-Aldrich), carboplatin (manufactured by Sigma-Aldrich) and cisplatin (manufactured by Enzo Life Sciences, Inc.).
First, the human colorectal cancer cell line COLO-320DM was suspended in RPMI1640 medium (hereinafter, medium) containing inactivated 10% fetal bovine serum, and the cells were seeded in a 96-well microplate at 350 cells (75 μL) per well. The cells were subjected to stationary culture overnight in a CO2 incubator at 37° C. Thereafter, in Example 8, a medium (25 μL) containing a combination of the compound prepared in Compound Example 5 and each of the anticancer agents was added in triplicate in such a manner that the final concentrations of the test compound (compound prepared in Compound Example 5) were 0 nM or 30 nM and that the final concentrations of each anticancer agent were those shown in Table 14. In Examples 9 to 14, a medium (25 μL) containing a combination of the compound prepared in each of Compound Examples and each of the anticancer agents was added in triplicate in such a manner that the final concentrations of the test compound were 0 nM or those shown in FIGS. 9 to 14. As a control, 25 μL of a medium containing only dimethyl sulfoxide (DMSO) which is a solvent was added. […]

[2] = target: T1, tankyrase-2 (Homo sapiens, UniProt Q9H2K2); assay: X-ray diffraction of tankyrase-2 crystal soaked with the compound; type: binding
T1 sequence (Q9H2K2 1-1166): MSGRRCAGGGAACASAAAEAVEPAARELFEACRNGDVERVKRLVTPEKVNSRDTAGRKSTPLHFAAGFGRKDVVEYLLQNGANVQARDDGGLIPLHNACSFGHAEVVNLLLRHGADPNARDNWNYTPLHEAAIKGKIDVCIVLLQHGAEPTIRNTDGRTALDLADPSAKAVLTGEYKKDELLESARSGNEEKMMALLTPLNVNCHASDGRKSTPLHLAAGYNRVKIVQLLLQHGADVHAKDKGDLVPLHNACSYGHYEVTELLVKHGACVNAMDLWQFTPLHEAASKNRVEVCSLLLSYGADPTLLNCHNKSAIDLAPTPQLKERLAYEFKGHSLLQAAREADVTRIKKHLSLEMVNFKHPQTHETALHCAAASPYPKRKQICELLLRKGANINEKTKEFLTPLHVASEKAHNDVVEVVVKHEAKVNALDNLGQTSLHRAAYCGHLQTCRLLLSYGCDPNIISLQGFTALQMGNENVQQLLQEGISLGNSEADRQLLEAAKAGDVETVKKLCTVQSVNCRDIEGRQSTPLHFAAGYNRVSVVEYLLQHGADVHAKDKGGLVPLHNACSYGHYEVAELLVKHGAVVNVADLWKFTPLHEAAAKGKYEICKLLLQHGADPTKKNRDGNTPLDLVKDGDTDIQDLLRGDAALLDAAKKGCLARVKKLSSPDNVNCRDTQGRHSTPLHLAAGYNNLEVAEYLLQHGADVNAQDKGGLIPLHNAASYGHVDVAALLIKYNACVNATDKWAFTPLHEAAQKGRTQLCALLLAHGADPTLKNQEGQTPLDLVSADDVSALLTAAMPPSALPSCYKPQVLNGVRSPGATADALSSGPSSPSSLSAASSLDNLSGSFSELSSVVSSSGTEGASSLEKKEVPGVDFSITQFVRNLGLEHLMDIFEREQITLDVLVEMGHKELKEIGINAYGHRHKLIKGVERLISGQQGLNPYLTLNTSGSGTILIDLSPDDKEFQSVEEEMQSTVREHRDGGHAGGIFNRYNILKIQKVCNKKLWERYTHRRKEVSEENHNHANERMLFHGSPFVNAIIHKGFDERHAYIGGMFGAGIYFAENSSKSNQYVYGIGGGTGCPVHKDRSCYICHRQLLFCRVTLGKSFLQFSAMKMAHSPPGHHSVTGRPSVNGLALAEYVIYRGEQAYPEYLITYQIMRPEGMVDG
Description: In the present invention, whether the tankyrase inhibitory compound is a nicotinamide-type compound or an adenosine-type compound can be determined by X-ray diffraction, more specifically a method in which a complex is crystallized from a mixed liquid of a tankyrase crystal prepared beforehand and the tankyrase inhibitory compound, and subjected to X-ray diffraction (soaking method), or a method in which a complex is crystallized from a mixed liquid having the tankyrase inhibitory compound coexisting with tankyrase in a state before the crystallization, and subjected to X-ray diffraction (co-crystallization). Whether the tankyrase inhibitory compound is a dual-type compound can be determined by preparing a crystal under any one of the above-described conditions, and performing X-ray diffraction.
X-ray diffraction data of a tankyrase-2 crystal soaked with the compound prepared in Compound Example 1 was measured with BL26B2 Beam Line in a large synchrotron radiation facility Spring-8 (Sayo-gun, Hyogo). The wavelength of the X-ray was 1.000 Å, and MX-225 (Rayonix, LLC) was used as a detector. The diffraction data was treated with XDS (Kabsch, 2010) and the CCP4 program (Winn et al., 2011).

[3] = Examples 9 to 14, COLO-320DM: test compound added at the concentration shown in FIGS. 9 to 14 to irinotecan (SN-38), survival with only irinotecan = 100%

| SMILES | cell survival rate [1, 3] | binding pocket type by X-ray diffraction [2] | cell survival rate ([1]; Example 8, COLO-320DM: test compound further added at 30 nM to each anticancer agent (temozolomide ... cisplatin), survival with only the anticancer agent = 100%) |
| --- | --- | --- | --- |
| O=c1[nH]c(N2CCC3(CC2)CN(CCO)c2cc(F)cc(F)c23)nc2c1CCCC2 [compound 1, 2-[4,6-Difluoro-1-(2-hydroxyethyl)spiro [indolin-3,4′-piperidin]-1′-yl]-5,6,7,8-tetrahydroquinazolin-4(3H)-one] | about 50% | nicotinamide-type compound which binds to the nicotinamide binding pocket of tankyrase |  |
| CN1CCN(c2cc(F)c3c(c2)N(C)C(=O)C32CCN(c3nc4c(c(=O)[nH]3)CCCN4C)CC2)CC1 [compound 5, 4-Fluoro-1-methyl-1′-(8-methyl-4-oxo-3,4,5,6,7,8-hexahydropyrido [2,3-d]pyrimidin-2-yl)-6-(4-methylpiperazin-1-yl)spiro [indolin-3,4′-piperidin]-2-one] |  |  | about 50% |
| CN1CCCc2c1nc(N1CCC3(CC1)C(=O)N(C)c1cc(N4CCC(C(=O)O)CC4)cc(F)c13)[nH]c2=O [compound 11, 1-[4-Fluoro-1-methyl-1′-(8-methyl-4-oxo-3,4,5,6,7,8-hexahydropyrido [2,3-d]pyrimidin-2-yl)-2-oxospiro[indolin-3,4′-piperidin]-6-yl]piperidin-4-carboxylic acid] | about 50% |  |  |
| C[C@@H]1CN(c2cc(F)c3c(c2)N(C)C(=O)C32CCN(c3nc4c(c(=O)[nH]3)CCCN4C)CC2)C[C@H](C)O1 [compound 19] | about 50% |  |  |
